Experimental data taken from ChEMBL document CHEMBL4392830, “Synthesis and biological evaluation of Doxorubicin-containing conjugate targeting PSMA” (Bioorg Med Chem Lett, 2019).
Active and inactive are the calls of the source. The calls are words filed in the database; no cut-off is given here.

How the values were obtained:
[1] = Drug uptake in cytoplasm of PSMA-negative human PC3 cells measured after 40 milliseconds; format: ADME, subcellular; conditions: pc-3
PC-3 [2] = experiment: Cytotoxicity against PSMA-negative human PC3 cells by cellTiter 96 aqueous cell proliferation assay; format: functional, cell-based
[3] = molecular target: T1, Glutamate carboxypeptidase 2 (Homo sapiens, UniProt Q04609); experiment: Binding affinity to PSMA in human LNCAP cells assessed as doxorubicin release in nucleus measured after 40 milliseconds; format: ADME, cell-based
T1 sequence (Q04609 whole entry): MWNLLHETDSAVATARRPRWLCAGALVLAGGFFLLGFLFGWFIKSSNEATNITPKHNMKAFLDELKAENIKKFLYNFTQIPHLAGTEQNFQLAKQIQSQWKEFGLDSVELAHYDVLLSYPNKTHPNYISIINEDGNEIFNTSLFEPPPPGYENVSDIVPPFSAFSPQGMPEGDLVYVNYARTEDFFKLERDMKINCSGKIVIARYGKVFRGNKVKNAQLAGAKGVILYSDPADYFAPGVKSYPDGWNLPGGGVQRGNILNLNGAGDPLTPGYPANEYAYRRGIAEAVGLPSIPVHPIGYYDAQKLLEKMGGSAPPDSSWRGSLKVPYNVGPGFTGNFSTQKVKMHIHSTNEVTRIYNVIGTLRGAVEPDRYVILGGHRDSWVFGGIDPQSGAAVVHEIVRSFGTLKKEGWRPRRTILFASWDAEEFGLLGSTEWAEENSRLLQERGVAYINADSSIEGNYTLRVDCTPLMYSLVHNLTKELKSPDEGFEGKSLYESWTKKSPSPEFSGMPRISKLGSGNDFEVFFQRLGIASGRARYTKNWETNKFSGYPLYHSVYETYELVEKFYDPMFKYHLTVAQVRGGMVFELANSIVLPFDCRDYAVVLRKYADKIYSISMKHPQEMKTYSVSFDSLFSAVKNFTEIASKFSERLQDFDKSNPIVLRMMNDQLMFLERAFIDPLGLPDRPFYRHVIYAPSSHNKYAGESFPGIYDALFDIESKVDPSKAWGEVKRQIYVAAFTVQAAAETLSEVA

[4] = molecular target: T1, Glutamate carboxypeptidase 2; experiment: Binding affinity to PSMA in human LNCAP cells assessed as doxorubicin release in cytoplasm measured after 48 hrs; format: ADME, cell-based
PC-3 [5] = experiment: Cytotoxicity against PSMA-negative human PC3 cells by MTT assay; format: functional
LNCaP C4-2 = experiment: Cytotoxicity against PSMA-positive human C4-2 cells by cellTiter 96 aqueous cell proliferation assay; format: functional, cell-based
[6] = molecular target: T1, Glutamate carboxypeptidase 2; experiment: Binding affinity to PSMA in human LNCAP cells assessed as doxorubicin release in cytoplasm measured after 40 milliseconds; format: ADME, cell-based
LNCaP = experiment: Cytotoxicity against PSMA-positive human LNCAP cells by MTT assay; format: functional
[7] = Drug uptake in nucleus of PSMA-negative human PC3 cells measured after 40 milliseconds; format: ADME, subcellular; conditions: pc-3
[8] = Drug uptake in nucleus of PSMA-negative human PC3 cells at 15 uM measured after 2 hrs by DAPI staining based fluorescence assay; format: ADME, subcellular; conditions: pc-3, 2 h
[9] = Drug uptake in nucleus of PSMA-positive human LNCAP cells at 15 uM measured after 2 hrs by DAPI staining based fluorescence assay; format: ADME, subcellular
[10] = Ratio of drug level in nucleus to cytoplasm of PSMA-positive human LNCAP cells measured after 40 milliseconds; format: ADME
[11] = Ratio of drug level in nucleus to cytoplasm of PSMA-negative human PC3 cells measured after 40 milliseconds; format: ADME
[12] = Drug uptake in nucleus of PSMA-positive human LNCAP cells measured after 48 hrs; format: ADME, subcellular
[13] = Antitumor activity against PSMA-positive human PC3-PIP cells xenografted in nu/nu mouse assessed as tumor growth inhibition at 4 mg/kg, ip per week for 3 weeks relative to control; format: functional; conditions: 504 h, read-out: TGI
[14] = Drug uptake in PSMA-negative human PC3 cells measured after 2 hrs by DAPI staining based fluorescence assay; format: ADME, cell-based; conditions: pc-3, 2 h
[15] = molecular target: T1, Glutamate carboxypeptidase 2; experiment: Binding affinity to PSMA in human LNCAP cells measured after 2 hrs by DAPI staining based fluorescence assay; format: ADME, cell-based

Structure (SMILES) | Drug uptake [1] | Activity (PC-3 [2]) | Activity [3] | Activity [4] | CC50 (PC-3 [5]) | Activity (LNCaP C4-2) | Activity [6] | CC50 (LNCaP) | Drug uptake [7] | Drug uptake [8] | IC50 (PC-3 [2]) | Drug uptake [9] | Ratio [10] | IC50 (LNCaP C4-2) | Ratio [11] | Drug uptake [12] | inhibition in vivo at 4 mg/kg [13] | Drug uptake [14] | Activity [15]
COc1cccc2c1C(=O)c1c(O)c3c(c(O)c1C2=O)C[C@@](O)(C(=O)CO)C[C@@H]3O[C@H]1C[C@H](NC(=O)CCC(=O)NCCCCCCCCCCC(=O)NCCCC[C@H](NC(=O)N[C@@H](CCC(=O)O)C(=O)O)C(=O)O)[C@H](O)[C@H](C)O1 | Not Active | inactive | Not Active | Active | inactive | inactive | Not Active | inactive | Not Active | – | – | – | – | – | – | – | – | – | –
COc1cccc2c1C(=O)c1c(O)c3c(c(O)c1C2=O)C[C@@](O)(C(=O)CO)C[C@@H]3O[C@H]1C[C@H](N)[C@H](O)[C@H](C)O1 [DOXORUBICIN] | – | – | – | – | < 500 nM | – | – | 107 nM | – | Active | > 32 nM | Active | 3.5 | > 32 nM | 3.7 | Active | 92% | – | –
CN1\C(=C/C=C/C=C/C2=[N+](CCCCCC(=O)NCCCCCCCCCCC(=O)NCCCC[C@H](NC(=O)N[C@@H](CCC(=O)O)C(=O)O)C(=O)O)c3cc(S(=O)(=O)[O-])ccc3C2(C)C)C(C)(C)c2cc(S(=O)(=O)[O-])ccc21.[Na+] | – | – | – | – | – | – | – | – | – | – | – | – | – | – | – | – | – | Not Active | Active
